The subject of data set [1] is Trypanosoma brucei rhodesiense (T.b.r.). Kind of data set: in vitro effectiveness against Trypanosoma brucei rhodesiense. The format is cell-based. From the text:
(§1) These compounds can thus be employed as treatments of second-stage human African trypanosomiasis.

Data set [2] concerns Plasmodium falciparum (P.f.). Kind of data set: in vitro effectiveness against Plasmodium falciparum. It is filed as cell-based.
Excerpt: as §1

Data set [3] relates to Trypanosoma brucei rhodesiense (T.b.r.). In words: in vivo effectiveness against T.b.r. (cures). To be noted: cures / animals treated.
Excerpt: as §1

[4] abbreviates: Trypanosoma brucei, RHODESIENSE

Counter-ions that a name gives are not always drawn. Like-named read-outs stand apart in the source and are kept apart here.

The IC50 is the concentration that inhibits the measured activity by half. One may read the melting point as the temperature, or range, at which the solid turns liquid.

Turning to `N#Cc1ccc(-c2cccc(C=O)n2)cc1` [Compound 6, 6-(4-Cyanophenyl)pyridine-2-carbaldehyde], the melting point is 158 to 159 °C. In data set [1] (setting [4]), this compound yielded an IC50 of 21.7 nM. This compound also returned an IC50 in data set [2] (Plasmodium falciparum) of 25.5 nM.
As for `c1cc(-c2nc3ccc(C4=NCCN4)cc3[nH]2)ccc1CCc1ccc(-c2nc3ccc(C4=NCCN4)cc3[nH]2)cc1` [Compound 24, 4,4′-Bis{2-[-6(2-imidazolino]benzimidazolyl}-1,2-diphenylethanetetrahydrochloride], the values for the half-inhibitory concentration (IC50) in data set [1] and in data set [2] were 393 nM and 19.6 nM, respectively.
As for `CC(=O)O.N=C(N)c1ccc(-c2cccc(-c3nc4ccc(C(=N)N)cc4[nH]3)n2)cc1` [Compound 36, 2-(5-Amidinobenzimidazol-2-yl)-6-(4-amidinophenyl)pyridine acetate salt], the results for the 50% inhibitory concentration (IC50) in data set [1] (setting [4]) and in data set [2] (Plasmodium falciparum) were 24 nM and 9.7 nM, respectively. In data set [3], the “In vivo vs. T.b.r. cures” value was 1/4.
On to `N=C(N)c1ccc(-c2ccc(-c3nc4cc(C(=N)N)ccc4o3)o2)cc1` [Compound 41], for which the concentration for half-maximal inhibition (IC50) was determined as 11 nM in data set [1] (setting [4]) and 32 nM in data set [2] (Plasmodium falciparum). Moreover, the “In vivo vs. T.b.r. cures” value in data set [3] was 4/4.
For the compound `CSc1cc(-c2ccc(-c3ccc(NC(=N)N)c(SC)c3)o2)ccc1NC(=N)N` [Compound 42, 2,5-Bis(4-guanidino-3-thiomethoxyphenyl)furan Dihydrochloride], the IC50 in data set [1] (setting [4]) turned out to be 57 nM; in data set [2] (Plasmodium falciparum), 66 nM.
Regarding `N=C(Nc1ccc(-c2ccc(-c3ccc(NC(=N)c4ccccn4)cc3O)o2)c(O)c1)c1ccccn1` [Compound 43, 2,5-Bis[2-hydroxy-4-(2-pyridylimino)amino]furan Dihydrochloride], the IC50 in data set [1] (setting [4]) came out at 32 nM; in data set [2] (Plasmodium falciparum), 5.1 nM.
For `CCOc1cc(-c2ccc(-c3ccc(NC(=N)N)c(OCC)c3)o2)ccc1NC(=N)N` [Compound 44, 2,5-Bis(3-ethoxy-4-guanidinophenyl)furan dihydrochloride] the same measures were 40 nM and 14.7 nM.
Turning to `Cc1cc(C(=N)N)ccc1-c1ccc(-c2nc3ccc(C(=N)N)cc3[nH]2)o1` [Compound 45, 2-{2-[5(6)-Amidino]benzimidazolyl}-5-[(4-amidino-2-methyl)-phenyl]-furan trihydochloride], the figures for the IC50 in data set [1] and in data set [2] were 9.4 nM and 147 nM, respectively. In addition, the “In vivo vs. T.b.r. cures” value in data set [3] is 2/4.

Source of the values: US20070088067A1, “Novel amidine compounds for treating microbial infections” (priority 2003, published 2007).
